Laboratory results reported in patent US20250064789A1, “KETOAMIDE DERIVATIVES AND PHARMACEUTICAL USES THEREOF” (priority 2022, published 2025).

Columns and labels:
in vivo = conditions: male, Sprague-Dawley, rat
[1] = Metabolic stability using human liver microsomes; assay type: in vitro ADME; conditions: NADPH, 37° C.
human cathepsin B = human cathepsin B (Homo sapiens (Human), UniProt P07858); assay: Human protease biochemical activity assay: Cathepsin B inhibitor screening kit
Description: (§1) The biochemical activity of compounds against human proteases was determined using Cathepsin K inhibitor screening kit (K150-100), Cathepsin B inhibitor screening kit (K147-100), Thrombin activity testing kit (K373-100), Caspase-2 inhibitor screening kit (K152-100), and Cathepsin D inhibitor screening kit (K148-100) according to the instructions of the kits (Biovision, USA). All experiments were carried out in triplicate. All experimental data were analyzed using GraphPad Prism software.

[2] = male, Sprague-Dawley, rat, in vivo, iv, 1 mg/kg
human cathepsin K = human cathepsin K (Homo sapiens (Human), UniProt P43235); assay: Human protease biochemical activity assay: Cathepsin K inhibitor screening kit; conditions: read-out: Cathepsin K IC50
Description: as §1

[3] = In vivo pharmacokinetic properties in rats; conditions: SD rats
[4] = test system: HUVEC cells (human umbilical vein endothelial cells); assay: Cytotoxic assay against HUVEC cells (MTT, 72 h); assay type: cell-based
Description: (§2) BEAS-2B cells (normal human bronchial epithelial cells) and HUVEC cells (human umbilical vein endothelial cells) were used to evaluate the cytotoxicity of compounds against human-derived cells. The detailed experimental procedures: BEAS-2B cells or HUVEC cells were seeded into a 96-well plate at a cell density of 2×10^4 cells/well, that is, 100 µL/well, and then incubated overnight at 37° C. in a 5% CO2 incubator. The next day, 100 μL of drug-containing medium was added to each well. The compound was diluted in a 2-fold serial dilution with a top concentration of […], for a total of 6 gradients. Three repeated wells were set for each concentration, and negative controls and blank controls without drugs were included for each experiment. […] All experimental data were analyzed using GraphPad Prism software.

human cathepsin D = human cathepsin D (Homo sapiens (Human), UniProt P07339); assay: Human protease biochemical activity assay: Cathepsin D inhibitor screening kit
Description: as §1

human thrombin = human thrombin (Homo sapiens (Human), UniProt P00734); assay: Human protease biochemical activity assay: Thrombin activity testing kit; conditions: read-out: Thrombin IC50
Description: as §1

[5] = target: recombinant SARS-CoV-2 M^pro (Severe acute respiratory syndrome coronavirus 2 (2019-nCoV) (SARS-CoV-2), UniProt P0DTD1); assay: Inhibition of SARS-CoV-2 M^pro enzyme activity (fluorescent substrate assay); assay type: biochemical; conditions: inhibition of SARS-CoV-2 M^pro enzyme activity; values in nM; read-out: IC50
[6] = test system: BEAS-2B cells (normal human bronchial epithelial cells); assay: Cytotoxic assay against human BEAS-2B cells (MTT, 72 h); assay type: cell-based
Description: as §2

Vero E6 cells = assay: Cytotoxic assay against Vero E6 cells (MTT, 72 h); assay type: cell-based
Description: The cytotoxicity assessment of compounds was performed against Vero E6 cells. The specific experimental procedures: Vero E6 cells were seeded into a 96-well plate at a cell density of 2×10^4 cells/well, with 100 μL/well, and then incubated overnight at 37° C. in a 5% CO2 incubator. The next day, 100 μL of drug-containing medium was added to each well. The compound was diluted in a 2-fold serial dilution with a top concentration of […], for a total of 6 gradients. Three repeated wells were set for each concentration, and negative controls and blank controls without drugs were included for each experiment. […] All experimental data were analyzed using GraphPad Prism software.

human caspase 2 = human caspase 2 (Homo sapiens (Human), UniProt P42575); assay: Human protease biochemical activity assay: Caspase-2 inhibitor screening kit; conditions: read-out: Caspase-2 IC50
Description: as §1

[7] = target: hERG potassium ion channels (Homo sapiens (Human), UniProt Q12809); assay: hERG potassium current, whole cell patch clamp in HEK-293-hERG cells; conditions: 0.1 μM
Sequence of hERG potassium ion channels (Q12809 whole entry, looked up): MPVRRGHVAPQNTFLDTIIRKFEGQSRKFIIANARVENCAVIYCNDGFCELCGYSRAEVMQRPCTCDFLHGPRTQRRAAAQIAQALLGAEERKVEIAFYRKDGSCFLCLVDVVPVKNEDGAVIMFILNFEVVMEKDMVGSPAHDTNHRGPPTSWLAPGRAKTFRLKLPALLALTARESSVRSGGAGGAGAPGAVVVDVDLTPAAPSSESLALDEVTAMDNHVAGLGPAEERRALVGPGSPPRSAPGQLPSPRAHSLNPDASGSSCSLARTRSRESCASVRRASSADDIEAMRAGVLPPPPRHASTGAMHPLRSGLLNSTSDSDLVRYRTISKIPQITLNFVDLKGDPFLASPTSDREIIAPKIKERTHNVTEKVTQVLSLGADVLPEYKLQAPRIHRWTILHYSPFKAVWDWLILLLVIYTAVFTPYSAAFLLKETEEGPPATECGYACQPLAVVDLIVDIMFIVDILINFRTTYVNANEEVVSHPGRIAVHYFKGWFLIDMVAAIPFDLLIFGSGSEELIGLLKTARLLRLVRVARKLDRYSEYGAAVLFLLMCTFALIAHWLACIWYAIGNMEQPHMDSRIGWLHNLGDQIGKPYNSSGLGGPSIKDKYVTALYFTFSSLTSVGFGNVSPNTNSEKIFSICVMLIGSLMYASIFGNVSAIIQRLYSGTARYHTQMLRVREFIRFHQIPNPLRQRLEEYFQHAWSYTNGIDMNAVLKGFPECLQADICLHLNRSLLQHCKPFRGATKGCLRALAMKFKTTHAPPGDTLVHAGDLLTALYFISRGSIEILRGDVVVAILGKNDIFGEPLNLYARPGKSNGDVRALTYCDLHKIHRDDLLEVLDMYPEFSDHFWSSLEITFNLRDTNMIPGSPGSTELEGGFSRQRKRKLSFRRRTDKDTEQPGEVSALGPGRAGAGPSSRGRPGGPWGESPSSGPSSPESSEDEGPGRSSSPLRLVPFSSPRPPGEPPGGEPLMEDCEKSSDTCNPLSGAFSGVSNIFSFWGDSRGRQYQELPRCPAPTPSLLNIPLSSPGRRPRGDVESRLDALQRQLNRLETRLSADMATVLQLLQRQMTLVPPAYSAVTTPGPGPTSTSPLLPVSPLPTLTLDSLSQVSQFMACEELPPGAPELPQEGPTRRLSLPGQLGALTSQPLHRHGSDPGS

Sequence of human caspase 2 (P42575 170-325): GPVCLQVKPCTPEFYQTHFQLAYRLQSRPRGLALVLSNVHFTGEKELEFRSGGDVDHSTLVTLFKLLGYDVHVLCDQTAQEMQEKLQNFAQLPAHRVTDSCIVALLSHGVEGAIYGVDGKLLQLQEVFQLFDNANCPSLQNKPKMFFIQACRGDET
Sequence of human caspase 2 (P42575 348-452): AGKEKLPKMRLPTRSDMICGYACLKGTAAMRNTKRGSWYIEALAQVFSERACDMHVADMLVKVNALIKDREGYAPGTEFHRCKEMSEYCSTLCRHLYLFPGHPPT
Sequence of human cathepsin D (P07339 65-412): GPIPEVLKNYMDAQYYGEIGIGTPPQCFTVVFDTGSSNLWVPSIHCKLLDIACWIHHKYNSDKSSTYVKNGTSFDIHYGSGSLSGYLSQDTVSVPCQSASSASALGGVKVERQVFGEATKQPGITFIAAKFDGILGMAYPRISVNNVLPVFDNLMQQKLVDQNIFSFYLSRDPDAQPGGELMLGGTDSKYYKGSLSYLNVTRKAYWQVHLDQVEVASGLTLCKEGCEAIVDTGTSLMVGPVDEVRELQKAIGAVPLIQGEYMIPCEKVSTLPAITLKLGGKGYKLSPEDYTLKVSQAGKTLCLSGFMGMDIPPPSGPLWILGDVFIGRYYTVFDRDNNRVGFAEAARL
Sequence of human cathepsin K (P43235 115-329): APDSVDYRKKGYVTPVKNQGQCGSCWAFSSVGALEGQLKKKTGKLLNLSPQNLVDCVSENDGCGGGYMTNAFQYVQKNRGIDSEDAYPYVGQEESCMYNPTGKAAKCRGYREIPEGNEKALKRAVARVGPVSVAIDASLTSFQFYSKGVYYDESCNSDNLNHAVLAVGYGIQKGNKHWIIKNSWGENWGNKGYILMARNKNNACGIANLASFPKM

| SMILES | MRT inf (in vivo; iv, 1 mg/kg) [h] | Tmax (in vivo; iv, 1 mg/kg) [h] | MRT inf (in vivo; po, 10 mg/kg) [h] | IC50 (human cathepsin B) [µM] | Vssobs [2] [L/kg] | IC50 (human cathepsin K) [µM] | AUCINF—obs ([3]; i.v. 1 mg/kg) [ng·h/mL] | AUClast ([3]; i.v. 1 mg/kg) [ng·h/mL] | CL ([3]; i.v. 1 mg/kg) [mL/min/kg] | Cmax ([3]; i.v. 1 mg/kg) [ng/mL] | T1/2 ([3]; i.v. 1 mg/kg) [h] | AUCINF—obs ([3]; p.o. 10 mg/kg) [ng·h/mL] | AUClast ([3]; p.o. 10 mg/kg) [ng·h/mL] | Cmax ([3]; p.o. 10 mg/kg) [ng/mL] | T1/2 ([3]; p.o. 10 mg/kg) [h] | CC50 [4] [µM] | IC50 (human cathepsin D) [µM] | IC50 (human thrombin) [µM] | IC50 [5] [nM] | CC50 [6] [µM] | further results |
| --- | --- | --- | --- | --- | --- | --- | --- | --- | --- | --- | --- | --- | --- | --- | --- | --- | --- | --- | --- | --- | --- |
| C[C@@H](NC(=O)C1CCC(F)(F)C1)C(=O)N[C@H](Cc1ccccc1)C(=O)C(=O)NCc1nccs1 (stereo partly shown) [Compound 379] | 1.26 ± 0.42 | 0.08 | 5.9 ± 0.79 | > 100 | 2.49 ± 1.61 | > 100 | 1329.00 ± 555.62 | 1292.28 ± 530.92 | 14.52 ± 7.25 | 1317.59 ± 168.03 | 1.90 ± 0.27 | 6903.48 ± 2619.87 | 6721.57 ± 2461.95 | 634.54 ± 161.39 | 4.15 ± 1.48 | > 500 | > 100 | > 100 | 22.5 ± 0.7 | > 500 | Human liver microsomes T1/2 [1]: 0.7035 h; F % ([3]; p.o. 10 mg/kg): 52.01 ± 19.05%; Tmax ([3]; p.o. 10 mg/kg): 1.67 ± 0.58 h; CC50 (Vero E6 cells): > 500 µM; IC50 (human caspase 2): > 100 µM |
| COC[C@@H](NC(=O)C1CCC(F)(F)CC1)C(=O)N[C@H](Cc1ccccc1)C(=O)C(=O)NCc1nccs1 [Compound 395] | 3.55 ± 0.52 | 0.08 | 7.63 ± 0.57 | > 100 | 5.25 ± 2.13 | > 100 | 2829.72 ± 958.55 | 2574.49 ± 819.96 | 6.48 ± 2.63 | 1697.71 ± 237.45 | 9.49 ± 2.16 | 13950.66 ± 782.95 | 12675.30 ± 1265.92 | 1006.49 ± 114.61 | 6.64 ± 1.17 | 129 | > 100 | > 100 | 18.4 ± 1.3 | 159 | Tmax (in vivo; po, 10 mg/kg): 4 h; Human liver microsomes T1/2 [1]: 0.6498 h; F % ([3]; p.o. 10 mg/kg): 49.23 ± 4.92%; CC50 (Vero E6 cells): 132 µM; IC50 (human caspase 2): > 100 µM |
| COc1cc(N)c(Cl)cc1C(=O)NC1CCN(CCCOc2ccc(F)cc2)CC1OC (stereo not shown) [Cisapride, reference compound] | – | – | – | – | – | – | – | – | – | – | – | – | – | – | – | – | – | – | – | – | The average tail current after administration [7]: 128.04 pA |
| COC[C@@H](NC(=O)CC1CC(F)(F)C1)C(=O)N[C@H](Cc1ccccc1)C(=O)C(=O)NCc1nccs1 [Compound 400] | 3.18 ± 0.52 | 0.08 | 6.47 ± 0.5 | > 100 | 3.28 ± 1.17 | > 100 | 2394.12 ± 644.94 | 2357.97 ± 638.69 | 7.30 ± 1.90 | 1352.62 ± 116.10 | 5.09 ± 0.57 | 11166.54 ± 364.00 | 10791.37 ± 123.59 | 805.87 ± 75.43 | 4.67 ± 1.04 | > 500 | > 100 | > 100 | 10.2 ± 0.1 | > 500 | Tmax (in vivo; po, 10 mg/kg): 2 h; Human liver microsomes T1/2 [1]: 0.5067 h; F % ([3]; p.o. 10 mg/kg): 45.77 ± 0.52%; CC50 (Vero E6 cells): > 500 µM; IC50 (human caspase 2): > 100 µM |
| C[C@@H](NC(=O)CC1CC(F)(F)C1)C(=O)N[C@H](Cc1ccccc1)C(=O)C(=O)NCc1nccs1 [Compound 378] | 3.19 ± 0.31 | 0.08 | 6.57 ± 0.38 | > 100 | 3.65 ± 0.74 | > 100 | 2254.80 ± 672.40 | 2196.61 ± 634.20 | 7.95 ± 2.80 | 1568.34 ± 201.27 | 5.47 ± 0.77 | 8696.48 ± 1124.53 | 8180.11 ± 795.05 | 734.80 ± 101.62 | 5.84 ± 1.30 | > 500 | > 100 | > 100 | 21.2 ± 0.3 | > 500 | bioavailability (in vivo; po, 10 mg/kg): 7.95 ± 2.8%; Tmax ([3]; p.o. 10 mg/kg): 1.33 ± 0.58 h; CC50 (Vero E6 cells): > 500 µM; IC50 (human caspase 2): > 100 µM |
